Measured values as given in ChEMBL document CHEMBL5696442, “Discovery of type II inhibitors of TGFβ-activated kinase 1 (TAK1) and mitogen-activated protein kinase kinase kinase kinase 2 (MAP4K2)” (J Med Chem, 2015).
Calls of active or inactive are those of the source. The calls are words filed in the database; no cut-off is given here.

Assays:
[1] = biological target: Ribosomal protein S6 kinase alpha-3 (Homo sapiens) (UniProt P51812); assay: Inhibition of RSK2 domain1 Lys2 labeling site in human Huh-7 cell lysate at 1 uM by KiNativ Profiling analysis relative to control; format: subcellular
[2] = biological target: Casein kinase I isoform delta (Homo sapiens) (UniProt P48730); assay: Inhibition of CK1d Lys2 labeling site in human Huh-7 cells at 1 uM by KiNativ Profiling analysis relative to control; format: cell-based
[3] = biological target: Cyclin-dependent kinase 6 (Homo sapiens) (UniProt Q00534); assay: Inhibition of CDK6 Lys2 labeling site in human Huh-7 cell lysate at 1 uM by KiNativ Profiling analysis relative to control; format: subcellular
[4] = biological target: Serine/threonine-protein kinase WNK2 (Homo sapiens) (UniProt Q9Y3S1); assay: Inhibition of Wnk2 Lys2 labeling site in human Huh-7 cell lysate at 1 uM by KiNativ Profiling analysis relative to control; format: subcellular
[5] = biological target: Mitogen-activated protein kinase kinase kinase 4 (Homo sapiens) (UniProt Q9Y6R4); assay: Inhibition of MAP3K4 Lys2 labeling site in human A-375 cells at 5 uM by KiNativ Profiling analysis relative to control; format: cell-based
[6] = biological target: Calcium/calmodulin-dependent protein kinase type II subunit gamma (Homo sapiens) (UniProt Q13555); assay: Inhibition of CaMK2g Lys1 labeling site harbouring KTSTQEYAAKIINTKK in human A-375 cells at 0.5 uM by KiNativ Profiling analysis relative to control; format: cell-based
[7] = biological target: Serine/threonine-protein kinase OSR1 (Homo sapiens) (UniProt O95747); assay: Inhibition of OSR1 (unknown origin) at 1 uM by Ambit Kinomescan binding assay relative to control; values are per cent of control
[8] = biological target: Atypical kinase COQ8B, mitochondrial (Homo sapiens) (UniProt Q96D53); assay: Inhibition of ADCK4 (unknown origin) at 10 uM by Ambit Kinomescan binding assay
[9] = biological target: Serine/threonine-protein kinase PLK1 (Homo sapiens) (UniProt P53350); assay: Inhibition of PLK1 Lys2 labeling site in human A-375 cells at 5 uM by KiNativ Profiling analysis relative to control; format: cell-based
[10] = biological target: Cyclin-dependent kinase 20 (Homo sapiens) (UniProt Q8IZL9); assay: Inhibition of CCRK Lys2 labeling site in human A-375 cells at 5 uM by KiNativ Profiling analysis relative to control; format: cell-based
[11] = biological target: T1, PAN2-PAN3 deadenylation complex subunit PAN3 (Homo sapiens) (UniProt Q58A45); assay: Inhibition of PAN3 KD labeling site in human Huh-7 cells at 1 uM by KiNativ Profiling analysis relative to control; format: cell-based
T1 sequence (whole entry): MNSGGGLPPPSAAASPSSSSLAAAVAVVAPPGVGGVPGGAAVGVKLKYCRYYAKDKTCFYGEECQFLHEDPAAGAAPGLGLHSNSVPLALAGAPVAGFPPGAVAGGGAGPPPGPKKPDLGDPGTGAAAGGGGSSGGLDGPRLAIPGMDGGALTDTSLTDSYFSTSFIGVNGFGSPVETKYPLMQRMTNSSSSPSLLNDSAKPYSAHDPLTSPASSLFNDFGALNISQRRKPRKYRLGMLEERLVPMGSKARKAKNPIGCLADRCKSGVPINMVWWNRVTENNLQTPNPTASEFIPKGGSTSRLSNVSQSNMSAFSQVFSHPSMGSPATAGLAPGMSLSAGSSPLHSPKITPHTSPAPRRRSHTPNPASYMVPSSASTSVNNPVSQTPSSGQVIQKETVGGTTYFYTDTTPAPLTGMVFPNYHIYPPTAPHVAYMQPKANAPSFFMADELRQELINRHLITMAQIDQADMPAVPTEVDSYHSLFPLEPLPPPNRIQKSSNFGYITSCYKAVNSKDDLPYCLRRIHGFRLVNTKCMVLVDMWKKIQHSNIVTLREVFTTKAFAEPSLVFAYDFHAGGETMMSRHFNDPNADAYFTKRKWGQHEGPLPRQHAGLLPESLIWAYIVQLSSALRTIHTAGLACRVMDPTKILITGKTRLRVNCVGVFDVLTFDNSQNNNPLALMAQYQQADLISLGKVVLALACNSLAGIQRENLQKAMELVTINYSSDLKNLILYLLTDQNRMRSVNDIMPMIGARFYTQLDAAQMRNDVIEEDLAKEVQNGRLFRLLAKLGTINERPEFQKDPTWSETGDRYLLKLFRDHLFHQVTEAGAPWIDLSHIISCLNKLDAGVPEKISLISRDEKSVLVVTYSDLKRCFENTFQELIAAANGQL

[12] = biological target: Serine/threonine-protein kinase A-Raf (Homo sapiens) (UniProt P10398); assay: Inhibition of ARAF Lys2 labeling site in human A-375 cells at 0.05 uM by KiNativ Profiling analysis relative to control; format: cell-based
[13] = biological target: T2, Serine/threonine-protein kinase Sgk3 (Homo sapiens) (UniProt Q96BR1); assay: Inhibition of SGK3 Lys1 labeling site in human A-375 cells at 0.05 uM by KiNativ Profiling analysis relative to control; format: cell-based
T2 sequence (whole entry): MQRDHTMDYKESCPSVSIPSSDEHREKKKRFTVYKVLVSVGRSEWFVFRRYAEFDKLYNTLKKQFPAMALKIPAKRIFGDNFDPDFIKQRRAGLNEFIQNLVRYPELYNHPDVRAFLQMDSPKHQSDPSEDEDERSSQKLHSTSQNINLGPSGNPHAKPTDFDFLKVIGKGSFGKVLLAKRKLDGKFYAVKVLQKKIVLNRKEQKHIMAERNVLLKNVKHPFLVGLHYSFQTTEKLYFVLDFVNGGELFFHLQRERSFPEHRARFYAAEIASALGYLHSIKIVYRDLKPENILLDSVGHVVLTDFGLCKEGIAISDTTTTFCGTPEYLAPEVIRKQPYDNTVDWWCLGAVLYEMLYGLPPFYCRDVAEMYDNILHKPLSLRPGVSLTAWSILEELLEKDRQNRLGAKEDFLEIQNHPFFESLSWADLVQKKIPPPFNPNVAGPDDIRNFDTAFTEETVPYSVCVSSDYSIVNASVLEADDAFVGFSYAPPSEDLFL

[14] = biological target: T3, Dual specificity mitogen-activated protein kinase kinase 4 (Homo sapiens) (UniProt P45985); assay: Inhibition of MEK4 (unknown origin) at 10 uM by Ambit Kinomescan binding assay
T3 sequence (whole entry): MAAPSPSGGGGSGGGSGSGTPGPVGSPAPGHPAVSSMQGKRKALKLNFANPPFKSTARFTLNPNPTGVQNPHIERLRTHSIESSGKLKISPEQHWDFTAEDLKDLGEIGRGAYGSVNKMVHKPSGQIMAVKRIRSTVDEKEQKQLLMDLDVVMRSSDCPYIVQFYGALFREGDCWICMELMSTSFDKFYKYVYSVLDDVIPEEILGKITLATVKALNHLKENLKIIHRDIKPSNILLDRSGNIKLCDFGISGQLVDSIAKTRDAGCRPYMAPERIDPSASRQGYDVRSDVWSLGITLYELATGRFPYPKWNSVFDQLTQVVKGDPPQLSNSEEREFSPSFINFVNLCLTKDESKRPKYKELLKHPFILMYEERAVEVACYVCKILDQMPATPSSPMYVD

Casein kinase I isoform delta (Homo sapiens), sequence (P48730 whole entry, looked up, canonical isoform): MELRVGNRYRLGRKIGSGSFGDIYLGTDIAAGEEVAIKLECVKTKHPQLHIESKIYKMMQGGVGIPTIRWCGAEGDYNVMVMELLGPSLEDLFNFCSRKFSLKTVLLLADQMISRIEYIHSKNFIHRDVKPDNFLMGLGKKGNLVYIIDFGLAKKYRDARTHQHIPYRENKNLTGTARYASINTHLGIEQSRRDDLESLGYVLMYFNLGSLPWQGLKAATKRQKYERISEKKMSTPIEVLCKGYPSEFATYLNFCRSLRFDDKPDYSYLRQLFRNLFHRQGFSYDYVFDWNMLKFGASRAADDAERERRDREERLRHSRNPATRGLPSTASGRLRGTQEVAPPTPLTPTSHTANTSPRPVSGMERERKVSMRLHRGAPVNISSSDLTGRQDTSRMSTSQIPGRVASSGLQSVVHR
Atypical kinase COQ8B, mitochondrial (Homo sapiens), sequence (Q96D53 whole entry): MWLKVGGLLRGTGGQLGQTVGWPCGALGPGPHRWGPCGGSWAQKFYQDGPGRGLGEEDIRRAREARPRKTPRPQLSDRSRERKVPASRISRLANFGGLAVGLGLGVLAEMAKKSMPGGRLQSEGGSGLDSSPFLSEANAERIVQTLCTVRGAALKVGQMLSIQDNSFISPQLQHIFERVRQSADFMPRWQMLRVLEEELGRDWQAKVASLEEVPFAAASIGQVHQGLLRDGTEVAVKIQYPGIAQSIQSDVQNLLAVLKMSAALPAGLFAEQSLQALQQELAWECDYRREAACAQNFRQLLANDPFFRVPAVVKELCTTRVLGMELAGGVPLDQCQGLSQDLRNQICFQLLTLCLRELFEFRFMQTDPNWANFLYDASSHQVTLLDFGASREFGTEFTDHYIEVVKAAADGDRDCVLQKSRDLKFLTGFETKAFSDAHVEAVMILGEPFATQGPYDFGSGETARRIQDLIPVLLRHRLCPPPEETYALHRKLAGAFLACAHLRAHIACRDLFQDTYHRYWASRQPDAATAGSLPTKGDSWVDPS
Serine/threonine-protein kinase A-Raf (Homo sapiens), sequence (P10398 whole entry): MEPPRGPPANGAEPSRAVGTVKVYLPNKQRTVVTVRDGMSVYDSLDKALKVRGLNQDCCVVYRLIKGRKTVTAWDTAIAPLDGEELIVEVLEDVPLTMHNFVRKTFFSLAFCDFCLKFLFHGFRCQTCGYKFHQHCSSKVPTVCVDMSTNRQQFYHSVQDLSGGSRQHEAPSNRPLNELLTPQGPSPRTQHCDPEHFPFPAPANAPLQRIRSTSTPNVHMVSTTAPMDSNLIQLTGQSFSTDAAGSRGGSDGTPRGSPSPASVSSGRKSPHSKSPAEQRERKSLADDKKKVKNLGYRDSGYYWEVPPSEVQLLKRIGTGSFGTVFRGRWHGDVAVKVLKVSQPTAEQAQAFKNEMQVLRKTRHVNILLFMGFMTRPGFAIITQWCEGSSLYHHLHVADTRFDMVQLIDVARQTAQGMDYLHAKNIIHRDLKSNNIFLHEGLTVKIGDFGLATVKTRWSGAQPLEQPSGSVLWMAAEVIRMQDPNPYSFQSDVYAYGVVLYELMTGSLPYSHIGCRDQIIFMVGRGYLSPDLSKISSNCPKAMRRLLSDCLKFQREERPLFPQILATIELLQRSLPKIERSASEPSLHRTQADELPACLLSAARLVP
Ribosomal protein S6 kinase alpha-3 (Homo sapiens), sequence (P51812 whole entry, the tested form may be a part, canonical isoform): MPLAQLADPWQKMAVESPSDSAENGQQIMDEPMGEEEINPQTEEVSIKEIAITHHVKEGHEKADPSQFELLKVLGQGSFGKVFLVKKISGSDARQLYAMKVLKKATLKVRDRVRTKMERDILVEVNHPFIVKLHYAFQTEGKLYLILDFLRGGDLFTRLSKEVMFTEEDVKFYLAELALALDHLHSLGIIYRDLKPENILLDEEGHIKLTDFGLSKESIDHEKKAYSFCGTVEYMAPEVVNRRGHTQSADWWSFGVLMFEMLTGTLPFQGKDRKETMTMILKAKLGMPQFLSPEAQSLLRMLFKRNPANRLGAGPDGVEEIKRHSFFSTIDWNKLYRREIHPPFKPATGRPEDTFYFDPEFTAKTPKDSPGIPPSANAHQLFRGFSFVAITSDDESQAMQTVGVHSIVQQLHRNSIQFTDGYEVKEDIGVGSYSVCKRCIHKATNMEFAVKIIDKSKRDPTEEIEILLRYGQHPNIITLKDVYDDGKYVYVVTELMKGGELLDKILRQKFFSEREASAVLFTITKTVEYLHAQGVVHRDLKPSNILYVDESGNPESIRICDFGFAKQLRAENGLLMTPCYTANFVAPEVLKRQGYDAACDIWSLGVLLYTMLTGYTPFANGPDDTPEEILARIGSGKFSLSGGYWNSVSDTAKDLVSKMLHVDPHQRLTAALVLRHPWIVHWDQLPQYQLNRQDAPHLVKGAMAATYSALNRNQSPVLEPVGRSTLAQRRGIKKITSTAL
Cyclin-dependent kinase 6 (Homo sapiens), sequence (Q00534 whole entry): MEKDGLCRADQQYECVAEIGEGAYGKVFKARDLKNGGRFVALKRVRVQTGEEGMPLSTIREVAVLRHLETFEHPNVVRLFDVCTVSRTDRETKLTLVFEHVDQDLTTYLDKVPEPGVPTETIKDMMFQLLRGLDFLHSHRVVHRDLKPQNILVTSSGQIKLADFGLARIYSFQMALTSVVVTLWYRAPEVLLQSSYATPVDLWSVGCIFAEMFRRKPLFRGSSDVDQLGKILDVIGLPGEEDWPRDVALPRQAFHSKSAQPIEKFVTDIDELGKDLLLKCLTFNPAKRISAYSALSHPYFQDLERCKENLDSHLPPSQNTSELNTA
Calcium/calmodulin-dependent protein kinase type II subunit gamma (Homo sapiens), sequence (Q13555 whole entry): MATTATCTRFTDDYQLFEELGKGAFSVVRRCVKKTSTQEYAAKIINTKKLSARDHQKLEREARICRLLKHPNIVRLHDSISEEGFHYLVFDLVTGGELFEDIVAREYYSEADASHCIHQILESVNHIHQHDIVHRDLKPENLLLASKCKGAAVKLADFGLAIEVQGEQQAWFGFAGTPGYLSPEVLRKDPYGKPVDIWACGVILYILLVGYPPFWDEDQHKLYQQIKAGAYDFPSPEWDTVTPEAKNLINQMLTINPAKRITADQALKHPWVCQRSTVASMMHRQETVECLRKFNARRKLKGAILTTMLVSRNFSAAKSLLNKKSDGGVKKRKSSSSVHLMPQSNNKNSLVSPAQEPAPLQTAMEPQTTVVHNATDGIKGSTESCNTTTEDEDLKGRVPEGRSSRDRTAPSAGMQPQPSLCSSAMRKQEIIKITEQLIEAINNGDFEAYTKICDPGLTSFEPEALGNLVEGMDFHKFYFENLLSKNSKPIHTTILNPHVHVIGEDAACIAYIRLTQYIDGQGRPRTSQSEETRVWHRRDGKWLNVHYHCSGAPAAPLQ
Mitogen-activated protein kinase kinase kinase 4 (Homo sapiens), sequence (Q9Y6R4 whole entry): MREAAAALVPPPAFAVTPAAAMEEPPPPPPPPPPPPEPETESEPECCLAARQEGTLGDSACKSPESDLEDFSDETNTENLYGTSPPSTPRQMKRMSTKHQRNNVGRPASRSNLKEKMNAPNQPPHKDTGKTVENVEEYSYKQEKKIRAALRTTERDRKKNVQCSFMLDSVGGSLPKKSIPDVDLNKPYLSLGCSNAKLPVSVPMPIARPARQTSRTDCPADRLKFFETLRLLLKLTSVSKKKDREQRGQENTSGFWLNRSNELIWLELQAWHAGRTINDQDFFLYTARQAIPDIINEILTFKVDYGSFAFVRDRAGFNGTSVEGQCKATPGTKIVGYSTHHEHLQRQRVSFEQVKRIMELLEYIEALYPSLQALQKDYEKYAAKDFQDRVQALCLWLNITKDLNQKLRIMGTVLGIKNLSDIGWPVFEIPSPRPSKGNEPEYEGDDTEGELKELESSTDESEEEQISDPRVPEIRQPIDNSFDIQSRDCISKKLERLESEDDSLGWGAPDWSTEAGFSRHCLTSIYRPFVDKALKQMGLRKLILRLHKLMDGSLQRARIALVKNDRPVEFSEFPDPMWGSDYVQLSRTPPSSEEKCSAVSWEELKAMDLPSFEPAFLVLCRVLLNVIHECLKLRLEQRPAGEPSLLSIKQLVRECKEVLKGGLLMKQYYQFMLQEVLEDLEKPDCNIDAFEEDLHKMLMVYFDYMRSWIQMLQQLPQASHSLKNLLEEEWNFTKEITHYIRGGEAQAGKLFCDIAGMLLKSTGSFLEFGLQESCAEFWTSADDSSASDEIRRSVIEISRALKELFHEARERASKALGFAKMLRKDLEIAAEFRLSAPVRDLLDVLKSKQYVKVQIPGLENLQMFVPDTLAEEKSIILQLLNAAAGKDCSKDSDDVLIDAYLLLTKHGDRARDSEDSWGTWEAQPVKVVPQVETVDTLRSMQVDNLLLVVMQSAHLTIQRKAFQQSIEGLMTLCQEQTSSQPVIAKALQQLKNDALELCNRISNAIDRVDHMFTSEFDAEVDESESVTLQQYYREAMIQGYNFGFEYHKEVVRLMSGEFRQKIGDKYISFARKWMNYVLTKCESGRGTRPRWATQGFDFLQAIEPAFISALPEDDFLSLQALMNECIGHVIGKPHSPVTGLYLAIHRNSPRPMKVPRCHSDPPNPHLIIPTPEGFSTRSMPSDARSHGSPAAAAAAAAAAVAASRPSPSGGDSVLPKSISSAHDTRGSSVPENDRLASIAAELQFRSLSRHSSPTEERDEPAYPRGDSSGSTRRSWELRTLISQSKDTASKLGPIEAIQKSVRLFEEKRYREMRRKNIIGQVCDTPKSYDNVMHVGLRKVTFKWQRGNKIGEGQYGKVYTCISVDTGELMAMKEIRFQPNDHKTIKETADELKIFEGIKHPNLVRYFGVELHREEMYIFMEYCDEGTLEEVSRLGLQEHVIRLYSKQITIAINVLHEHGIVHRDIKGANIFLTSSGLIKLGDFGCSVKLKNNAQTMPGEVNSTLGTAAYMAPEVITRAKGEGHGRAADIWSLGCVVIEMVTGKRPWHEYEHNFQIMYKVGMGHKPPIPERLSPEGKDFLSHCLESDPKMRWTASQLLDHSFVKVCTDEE

Compound: CNc1cc(Oc2cc(C(=O)Nc3cc(N4CCN(C)CC4)cc(C(F)(F)F)c3)ccc2C)ncn1
- inhibition [1]: 20.7%
- inhibition [2]: 39.1%
- inhibition [3]: -1.9%
- inhibition [4]: 2.7%

Compound: CCN1CCN(Cc2ccc(NC(=O)c3ccc(C)c(/C=C/c4cnc5[nH]ccc5c4OC)c3)cc2C(F)(F)F)CC1
- inhibition [5]: 14.2%
- inhibition [6]: 13%
- residual activity [7]: 100%

Compound: CCN1CCN(Cc2ccc(NC(=O)c3ccc(C)c(Oc4ccnc5[nH]ccc45)c3)cc2C(F)(F)F)CC1
- inhibition [8]: inactive
- inhibition [9]: 17.6%
- inhibition [10]: 4.5%
- inhibition [11]: 13.4%
- inhibition [12]: 39.3%
- inhibition [13]: 3.5%
- inhibition [14]: inactive
